Laboratory results published in patent publication US20120264827A1, “SULFANYLAMIDE DERIVATIVES, USES THEREOF AND COMPOSITIONS COMPRISING THEM” (YISSUM RESEARCH DEVELOPMENT COMPANY OF THE HEBREW …, priority 2009, published 2012).
Like-named read-outs stand apart in the source and are kept apart here.

Tests used:
[1] = system: maximal electroshock seizure (MES); assay: Maximal electroshock seizure test (MES), mice, intraperitoneal; format: in vivo; conditions: ip;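 note: adult male CF no. 1 albino mice of 18–25 g, given compound intraperitoneally as a 0.5% methylcellulose suspension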
[2] = system: subcutaneous metrazol (pentylenetetrazol) seizure; assay: Subcutaneous metrazol seizure threshold test (scMet), mice, intraperitoneal; format: in vivo; conditions: ip;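 note: adult male CF no. 1 albino mice weighing 18-25 g, dosed intraperitoneally with compounds suspended in 0.5% methylcellulose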
[3] = system: maximal electroshock seizure (MES); conditions: male, Sprague-Dawley, rat, in vivo, po
Method: (§1) The tested compounds were suspended in 0.5% methylcellulose and administered (a) intraperitioneally (ip) to adult male CF no. 1 albino mice (18-25 g) in volume of 0.01 mL/g body weight and (b) orally to adult male Sprague-Dawley albino rats (100-150 g) in volume of 0.04 mL per 10 g of body weight.
(§2) The TD50 was determined by varying the dose of the tested compounds until four points were established between the dose level that induced no signs of minimal motor impairment in any of the animals and the dose at which all the animals were considered impaired. […] The PIs were calculated by dividing the TD50 by the ED50.

in vivo = conditions: male, Sprague-Dawley, rat, po
Method: as §1, §2

[4] = system: maximal electroshock seizure (MES); assay: Maximal electroshock seizure test (MES), rats, oral; conditions: for responders at 30 mg/kg / ED50: Rattus norvegicus, po; for responders at 30 mg/kg: read-out: Anti-MES activity (number of animals protected/number of animals tested); for ED50: read-out: MES ED50, rats dosed orally; for ED50 / MES ED50: interval in parentheses = 95% confidence interval; for MES ED50: rats dosed orally;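 for all read-outs here: adult male Sprague-Dawley rats received test compounds by mouth as a suspension in 0.5% methylcellulose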
Method: as §1, §2

[5] = system: subcutaneous metrazol (pentylenetetrazol) seizure; conditions: for PI, protective index (PI = TD50/ED50) in the scMet test: male, Sprague-Dawley, rat, in vivo, po
Method: (§3) The evaluation of the anticonvulsant activity in the maximal electroshock seizure test (MES) and subcutaneous metrazol seizure threshold test (scMet) and the determination of neurotoxicity in the rotorod test, positional sense test, and others were performed according to the protocols described in White, H. S., Woodhead J. H., Wilcox K. S., Stables J. P., Kupferberg H. J., Wolf H. H., Discovery and Preclinical Development of Antiepileptic Drugs; 5th ed.; Lippincott Williams &Wilkins: New york, 2002; 36-48.
(§4) The tested compounds were suspended in 0.5% methylcellulose and administered (a) intraperitioneally (ip) to adult male CF no. 1 albino mice (18-25 g) in volume of 0.01 mL/g body weight and (b) orally to adult male Sprague-Dawley albino rats (100-150 g) in volume of 0.04 mL per 10 g of body weight. The pentylenetetrazol solution at convulsing dose was prepared by sufficient dissolution of pentylenetetrazol in 0.9% saline to make 0.85% solution for administration to mice and a 2.82% solution for administration to rats.
as §2

[6] = system: subcutaneous metrazol (pentylenetetrazol) seizure; assay: animal or person; conditions: Rattus norvegicus, po, read-out: scMet ED50
Method: as §3, §4, §2

[7] = 30 mg/kg, 0.5 h after administration
[8] = 30 mg/kg, 4 h after administration
[9] = 100 mg/kg, 0.5 h after administration
[10] = 100 mg/kg, 4 h after administration
[11] = 300 mg/kg, 0.5 h after administration
[12] = 300 mg/kg, 4 h after administration

| melting point [°C] | Compound | MES (number of animals protected/number of animals tested) [1, 7] | MES (number of animals protected/number of animals tested) [1, 8] | MES (number of animals protected/number of animals tested) [1, 9] | MES (number of animals protected/number of animals tested) [1, 10] | MES (number of animals protected/number of animals tested) [1, 11] | MES (number of animals protected/number of animals tested) [1, 12] | scMet (number of animals protected/number of animals tested) [2, 7] | scMet (number of animals protected/number of animals tested) [2, 8] | scMet (number of animals protected/number of animals tested) [2, 9] | scMet (number of animals protected/number of animals tested) [2, 10] | scMet (number of animals protected/number of animals tested) [2, 11] | scMet (number of animals protected/number of animals tested) [2, 12] | TD50 (in vivo) [mg/kg] | responders at 30 mg/kg ([4]; 0.5 h) [%] | responders at 30 mg/kg ([4]; 1 h) [%] | responders at 30 mg/kg ([4]; 2 h) [%] | responders at 30 mg/kg ([4]; 4 h) [%] | responders at 30 mg/kg ([4]; […]) [%] | ED50 [4] [mg/kg] | further results |
| --- | --- | --- | --- | --- | --- | --- | --- | --- | --- | --- | --- | --- | --- | --- | --- | --- | --- | --- | --- | --- | --- |
|  | CCC(CC)C(=O)Nc1ccc(S(N)(=O)=O)cc1 [Compound 11, 2-Ethyl-N-(4-sulfamoyl-phenyl)-butyramide] | 1/1 | 1/1 | 3/3 | 3/3 | 1/1 | 1/1 | 0/1 0/1 0/1 | 0/1 0/1 0/1 | 0/1 0/1 0/1 | 0/1 0/1 0/1 | 0/1 0/1 0/1 | 0/1 0/1 0/1 | > 500 | 75 | 100 | 100 | 100 | 25 | ~10 | activity in the scMet test ([5]; doses up to 250 mg/kg): inactive; PI, protective index (PI = TD50/ED50) in the scMet test [5]: >2; ED50 [6]: > 250 mg/kg; anticonvulsant potency relative to valproic acid (times greater) ([4]; rat-MES, versus VPA): 49 times; rat-MES PI relative to VPA (times higher) ([4]; rat-MES, versus VPA): about 31 times; MES ED50 [4]: 9.9 (6.5-14.5) mg/kg |
|  | CCCC(C)C(=O)Nc1ccc(S(N)(=O)=O)cc1 (centres unmarked) [Compound 16, 2-Methyl-N-(4-sulfamoyl-phenyl)-pentanamide] | 0/1 | 0/1 | 0/3 | 2/3 | 0/1 | 1/1 | 0/1 0/1 0/1 | 0/1 0/1 0/1 | 0/1 0/1 0/1 | 0/1 0/1 0/1 | 0/1 0/1 0/1 | 0/1 0/1 0/1 | > 500 | 25 | 100 | 100 | 100 | 25 | ~10 | PI, protective index (PI = TD50/ED50) in the MES test [3]: >46.3; PI, protective index (PI = TD50/ED50) in the scMet test [5]: >2; ED50 [6]: > 250 mg/kg |
| 203 to 205 | CCC(C)C(CC)C(=O)Nc1ccc(S(N)(=O)=O)cc1 (centres unmarked) [Compound 19, 2-Ethyl-3-methyl-N-(4-sulfamoyl-phenyl)-pentanamide] | 0/1 | 0/1 | 3/7 | 3/3 | 4/5 | 1/1 | 0/1 0/1 0/1 | 0/1 0/1 0/1 | 0/1 0/1 0/1 | 0/1 0/1 0/1 | 0/1 0/1 0/1 | 0/1 0/1 0/1 |  | 0 | 75 | 100 | 75 | 0 |  |  |
| 223 to 226 | CCCC(C(=O)Nc1ccc(S(N)(=O)=O)cc1)C(C)CC (centres unmarked) [Compound 21, 2-propyl-3-Methyl-N-(4-sulfamoyl-phenyl)-pentanamide] | 0/1 | 0/1 | 1/3 | 2/3 | 1/1 | 1/1 | 0/1 0/1 0/1 | 0/1 0/1 0/1 | 0/1 0/1 0/1 | 0/1 0/1 0/1 | 0/1 0/1 0/1 | 0/1 0/1 0/1 |  | 25 | 25 | 50 | 25 | 0 |  |  |
| 205 to 207 | CC(C)(C)CC(=O)NCc1ccc(S(N)(=O)=O)cc1 [Compound 27, 3,3-Dimethyl-N-(4-sulfamoyl-benzyl)-butyramide] | 0/1 | 0/1 | 0/3 | 1/3 | 0/1 | 1/1 | 0/1 0/1 0/1 | 0/1 0/1 0/1 | 0/1 0/1 0/1 | 0/1 0/1 0/1 | 0/1 0/1 0/1 | 0/1 0/1 0/1 |  | 0 | 25 | 50 | 50 | 0 |  |  |
|  | NS(=O)(=O)c1ccc(NC(=O)Cc2ccccc2)cc1 [Compound 30, 2-Phenyl-N-(4-sulfamoyl-phenyl)-acetamide] | 0/1 | 0/1 | 3/3 | 3/3 | 1/1 | 1/1 | 0/1 0/1 0/1 | 0/1 0/1 0/1 | 0/1 0/1 0/1 | 0/1 0/1 0/1 | 0/1 0/1 0/1 | 0/1 0/1 0/1 | > 500 | 0 | 100 | 75 | 100 | 0 | 16.1 | PI, protective index (PI = TD50/ED50) in the MES test [3]: >31.0; PI, protective index (PI = TD50/ED50) in the scMet test [5]: >2; ED50 [6]: > 250 mg/kg |

| Compound | melting point [°C] | MES (number of animals protected/number of animals tested) [1, 7] | MES (number of animals protected/number of animals tested) [1, 8] | MES (number of animals protected/number of animals tested) [1, 9] | MES (number of animals protected/number of animals tested) [1, 10] | MES (number of animals protected/number of animals tested) [1, 11] | MES (number of animals protected/number of animals tested) [1, 12] | scMet (number of animals protected/number of animals tested) [2, 7] | scMet (number of animals protected/number of animals tested) [2, 8] | scMet (number of animals protected/number of animals tested) [2, 9] | scMet (number of animals protected/number of animals tested) [2, 10] | scMet (number of animals protected/number of animals tested) [2, 11] | scMet (number of animals protected/number of animals tested) [2, 12] | TD50 (in vivo) [mg/kg] | responders at 30 mg/kg ([4]; 0.5 h) [%] | responders at 30 mg/kg ([4]; 1 h) [%] | responders at 30 mg/kg ([4]; 2 h) [%] | responders at 30 mg/kg ([4]; 4 h) [%] | responders at 30 mg/kg ([4]; […]) [%] | ED50 [4] [mg/kg] | further results |
| --- | --- | --- | --- | --- | --- | --- | --- | --- | --- | --- | --- | --- | --- | --- | --- | --- | --- | --- | --- | --- | --- |
| CC(C)(C)C(=O)Nc1ccc(S(N)(=O)=O)cc1 [Compound 9, 2,2-Dimethyl-N-(4-sulfamoyl-phenyl)-propionamide] | 228 to 229 | 0/1 | 0/1 | 1/3 | 2/3 | 1/1 | 1/1 | 0/1 0/1 0/1 | 0/1 0/1 0/1 | 0/1 0/1 0/1 | 0/1 0/1 0/1 | 0/1 0/1 0/1 | 0/1 0/1 0/1 | > 500 | 0 | 75 | 50 | 100 | 0 | 42 | PI, protective index (PI = TD50/ED50) in the MES test [3]: >11.8; MES ED50 [4]: 42.2 (22.9-86.4) mg/kg |
| CCC(CC)C(=O)NCc1ccc(S(N)(=O)=O)cc1 [Compound 28, 2-Ethyl-N-(4-sulfamoyl-benzyl)-butyramide] | 148 to 150 | 0/1 | 0/1 | 3/3 | 1/3 | 1/1 | 1/1 | 0/1 0/1 0/1 | 0/1 0/1 0/1 | 0/1 0/1 0/1 | 0/1 0/1 0/1 | 0/1 0/1 0/1 | 0/1 0/1 0/1 | > 500 | 25 | 50 | 0 | 0 | 25 | 24.7 | PI, protective index (PI = TD50/ED50) in the scMet test [5]: >2; ED50 [6]: > 250 mg/kg |
